# Assay results taken from PMC11357256, “Selectivity Screening and Structure–Cytotoxic Activity Observations of Selected Oleanolic Acid (OA)-Type Saponins from the Amaranthaceae Family on a Wiade Panel of Human Cancer Cell Lines” (Molecules, 2024).
# What was measured:
# [1] = system: Caco-2; experiment: MTT cell viability assay, Caco-2 colon cancer cells; format: cell-based; settings: Homo sapiens
# Source text: (§1) Cell lines used in the study were grouped as follows: skin panel (melanomas: HTB140, derived from metastatic site: lymph node, ATCC Hs 294 T; malignant A375, ATCC CRL-1619; stage I primary WM793, RRID:CVCL 8787; skin keratinocytes HaCaT); prostate panel (prostate carcinomas: Du145, derived from metastatic site: brain, ATCC HTB-81; grade IV PC3, derived from metastatic site: bone, ATCC CRL-1435, LNCaP, derived from the metastatic site: lymph node, ATCC CRL-1740; prostate epithelial, PNT2, ECACC 95012613); gastrointestinal panel (colorectal adenocarcinomas: Caco2, ATCC HTB-37, HT29, ATCC HTB-38, DLD-1, ATCC CCL-221, HCT116, ATCC CCL-247, and colon epithelial cells CCD 841 CoN, ATCC CRL-1790; hepatocellular carcinoma HepG2, ATCC HB-8065); thyroid panel (follicular thyroid carcinoma FTC133, ECACC 9406090, undifferentiated thyroid carcinoma 8505C, ECACC 94090184, papillary thyroid carcinoma TPC-1, SCC147, normal thyroid follicular epithelial Nthy-ori 3–1, ECACC 90011609); and breast panel (ER-positive breast adenocarcinoma MCF7, ATCC HTB-22; ER-negative breast adenocarcinoma MDA-MB-231, ATCC HTB-26; breast epithelial MCF10A, ATCC CRL-10317). Cells were grown under standard conditions (37 °C, 5% CO2, relative humidity), and culture media (DMEM/F12 for PNT2, WM 793, HT29, PC3, FTC133, 8505 C, MDA-MB-231, TPC-1; DMEM Low Glucose for DU145; DMEM High Glucose for HTB140, A375, HaCaT; MEM with NEAA for Caco2 and MCF7; RPMI1640 with sodium pyruvate for LNCaP; DMEM/F12 with 20 ng/mL epidermal growth factor (EGF), 10 μg/mL insulin, 0.5 μg/mL hydrocortisone, 100 ng/mL cholera toxin) for MCF10A) supplemented with 10% fetal bovine serum (FBS) or 5% donor horse serum for MCF10A, and 1% antibiotics solution (10,000 U penicillin and 10 mg streptomycin/mL) […], as previously described. All cell lines, culture media, and supplements were from Sigma-Aldrich (Germany).
# (§2) The cells were seeded in 96-well plates (1.5 × 10^4 cells/well). After 24 h, fresh medium was added, containing the tested compounds (0.5–100 μg/mL) and incubated for 24 or 48 h. Cell viability was determined by MTT assay, according to the manufacturer’s instructions, as described previously. Each experiment was performed in triplicate. The absorbance was measured at 570 nm using a Biotek Synergy microplate reader (BioTek Instruments Inc., Winooski, VT, USA). Cell viability was expressed as a percent of control (untreated cells). Doxorubicin was used as a reference drug.
# [2] = system: LNCaP; experiment: MTT cell viability assay, LNCaP prostate adenocarcinoma cells; format: cell-based; settings: Homo sapiens
# Source text: as §1, §2
# [3] = system: Nthy-ori 3-1; experiment: MTT cell viability assay, Nthy-ori 3-1 normal thyroid epithelial cells; format: cell-based; settings: Homo sapiens
# Source text: as §1, §2
# [4] = system: PC3; experiment: MTT cell viability assay, PC3 prostate carcinoma cells; format: cell-based; settings: Homo sapiens, PC-3
# Source text: as §1, §2
# [5] = system: CCD 841 CoN; experiment: MTT cell viability assay, CCD 841 CoN normal colon epithelial cells; format: cell-based; settings: Homo sapiens
# Source text: as §1, §2
# [6] = system: HepG2; experiment: MTT cell viability assay, HepG2 hepatocellular carcinoma cells; format: cell-based; settings: Homo sapiens
# Source text: as §1, §2
# [7] = system: WM793; experiment: MTT cell viability assay, WM793 primary melanoma cells; format: cell-based, human; settings: for IC50: Homo sapiens
# Source text: as §1, §2
# (§3) The selectivity index (SI) was calculated from the following formula:SI = IC50 of compound in a normal cell line/IC50 of compound in cancer cell line.IC50, half maximal inhibitory concentration, is a concentration required to kill 50% of the cells.
# [8] = system: 8505C; experiment: MTT cell viability assay, 8505C undifferentiated thyroid carcinoma cells; format: cell-based, human; settings: for IC50: Homo sapiens, 8505C; for Selectivity Index (SI): IC50 Nthy-ori 3-1 / IC50 8505C
# Source text: as §1, §2, §3
# [9] = system: TPC-1; experiment: MTT cell viability assay, TPC-1 papillary thyroid carcinoma cells; format: cell-based, human; settings: for IC50: Homo sapiens, TPC1
# Source text: as §1, §2, §3
# [10] = system: HT29; experiment: MTT cell viability assay, HT29 colorectal adenocarcinoma cells; format: cell-based; settings: Homo sapiens, HT-29
# Source text: as §1, §2
# [11] = system: MCF10A; experiment: MTT cell viability assay, MCF10A normal breast epithelial cells; format: cell-based; settings: Homo sapiens, MCF-10A
# Source text: as §1, §2
# [12] = system: HTB-140; experiment: MTT cell viability assay, HTB-140 metastatic melanoma cells; format: cell-based, human; settings: for IC50: Homo sapiens
# Source text: as §1, §2, §3
# [13] = system: MDA-MB-231; experiment: MTT cell viability assay, MDA-MB-231 breast adenocarcinoma cells; format: cell-based; settings: Homo sapiens
# Source text: as §1, §2
# [14] = system: HaCaT; experiment: MTT cell viability assay, HaCaT keratinocytes; format: cell-based; settings: Homo sapiens
# Source text: as §1, §2
# [15] = system: FTC133; experiment: MTT cell viability assay, FTC133 follicular thyroid carcinoma cells; format: cell-based, human; settings: for IC50: Homo sapiens, FTC-133
# Source text: as §1, §2, §3
# [16] = system: A375; experiment: MTT cell viability assay, A375 malignant melanoma cells; format: cell-based, human; settings: for IC50: Homo sapiens, A-375; for Selectivity Index (SI): IC50 HaCaT / IC50 A375, 24 h
# Source text: as §1, §2, §3
# [17] = system: Du-145; experiment: MTT cell viability assay, Du-145 prostate carcinoma cells; format: cell-based; settings: Homo sapiens
# Source text: as §1, §2
# [18] = system: MCF7; experiment: MTT cell viability assay, MCF7 breast adenocarcinoma cells; format: cell-based; settings: Homo sapiens
# Source text: as §1, §2
# [19] = system: PNT2; experiment: MTT cell viability assay, PNT2 normal prostate epithelial cells; format: cell-based; settings: Homo sapiens
# Source text: as §1, §2
# [20] = system: DLD-1; experiment: MTT cell viability assay, DLD-1 colon cancer cells; format: cell-based; settings: Homo sapiens
# Source text: as §1, §2
# [21] = system: HCT116; experiment: MTT cell viability assay, HCT116 colon cancer cells; format: cell-based; settings: Homo sapiens, HCT-116
# Source text: as §1, §2
# [22] = IC50 Nthy-ori 3-1 / IC50 TPC-1, 24 h
# [23] = IC50 HaCaT / IC50 HTB-140, 24 h
# [24] = IC50 Nthy-ori 3-1 / IC50 FTC133, 24 h
structure (smiles),measurement,setting,value
"CC1(C)CC[C@]2(C(=O)O)CC[C@]3(C)C(=CC[C@@H]4[C@@]5(C)CC[C@H](O)C(C)(C)[C@@H]5CC[C@]43C)[C@@H]2C1 [OA, oleanolic acid]",IC50,"[1]; Caco-2, 24 h",13 µg/mL
same,IC50,"[1]; Caco-2, 48 h",8.3 µg/mL
same,IC50,[2]; 24 h,> 100 µg/mL
same,IC50,[2]; 48 h,> 100 µg/mL
same,IC50,[3]; 24 h,94.4 µg/mL
same,IC50,[3]; 48 h,71.6 µg/mL
same,IC50,"[4]; PC3, 24 h",> 100 µg/mL
same,IC50,"[4]; PC3, 48 h",> 100 µg/mL
same,IC50,[5]; 24 h,> 100 µg/mL
same,IC50,[5]; 48 h,> 100 µg/mL
same,IC50,"[6]; HepG2, 24 h",51.5 µg/mL
same,IC50,"[6]; HepG2, 48 h",10.7 µg/mL
same,IC50,"[7]; WM793, 24 h",2.8 µg/mL
same,IC50,"[7]; WM793, 48 h",1.2 µg/mL
same,Selectivity Index (SI),"[7]; IC50 HaCaT / IC50 WM793, 24 h",4.0
same,Selectivity Index (SI),"[7]; IC50 HaCaT / IC50 WM793, 48 h",6.0
same,IC50,[8]; 24 h,19.5 µg/mL
same,IC50,[8]; 48 h,11.3 µg/mL
same,Selectivity Index (SI),[8]; 24 h,4.8
same,Selectivity Index (SI),[8]; 48 h,6.4
same,IC50,"[9]; TPC-1, 24 h",36.6 µg/mL
same,IC50,"[9]; TPC-1, 48 h",30 µg/mL
same,Selectivity Index (SI),[9]; [22],2.6
same,Selectivity Index (SI),"[9]; IC50 Nthy-ori 3-1 / IC50 TPC-1, 48 h",2.4
same,IC50,"[10]; HT29, 24 h",> 100 µg/mL
same,IC50,"[10]; HT29, 48 h",> 100 µg/mL
same,IC50,[11]; 24 h,> 100 µg/mL
same,IC50,[11]; 48 h,> 100 µg/mL
same,IC50,"[12]; HTB-140, 24 h",51.4 µg/mL
same,IC50,"[12]; HTB-140, 48 h",29.5 µg/mL
same,Selectivity Index (SI),[12]; [23],0.2
same,Selectivity Index (SI),"[12]; IC50 HaCaT / IC50 HTB-140, 48 h",0.2
same,IC50,"[13]; MDA-MB-231, 24 h",> 100 µg/mL
same,IC50,"[13]; MDA-MB-231, 48 h",38.5 µg/mL
same,IC50,[14]; 24 h,11.2 µg/mL
same,IC50,[14]; 48 h,7.5 µg/mL
same,IC50,"[15]; FTC133, 24 h",13.5 µg/mL
same,IC50,"[15]; FTC133, 48 h",4.9 µg/mL
same,Selectivity Index (SI),[15]; [24],6.99
same,Selectivity Index (SI),"[15]; IC50 Nthy-ori 3-1 / IC50 FTC133, 48 h",14.6
same,IC50,"[16]; A375, 24 h",2.2 µg/mL
same,IC50,"[16]; A375, 48 h",0.9 µg/mL
same,Selectivity Index (SI),[16],5.2
same,IC50,"[17]; DU-145, 24 h",23.4 µg/mL
same,IC50,"[17]; DU-145, 48 h",12.2 µg/mL
same,IC50,"[18]; MCF7, 24 h",> 100 µg/mL
same,IC50,"[18]; MCF7, 48 h",67 µg/mL
same,IC50,[19]; 24 h,> 100 µg/mL
same,IC50,[19]; 48 h,> 100 µg/mL
same,IC50,"[20]; DLD-1, 24 h",48.7 µg/mL
same,IC50,"[20]; DLD-1, 48 h",24.5 µg/mL
same,IC50,"[21]; HCT116, 24 h",25.6 µg/mL
same,IC50,"[21]; HCT116, 48 h",18.5 µg/mL
"COc1cccc2c1C(=O)c1c(O)c3c(c(O)c1C2=O)C[C@@](O)(C(=O)CO)C[C@@H]3O[C@H]1C[C@H](N)[C@H](O)[C@H](C)O1 [DOX, Doxorubicin]",IC50,"[1]; Caco-2, 24 h",3.4 µg/mL
same,IC50,[2]; 24 h,1.8 µg/mL
same,IC50,[3]; 24 h,27.2 µg/mL
same,IC50,"[4]; PC3, 24 h",> 50 µg/mL
same,IC50,[5]; 24 h,1.7 µg/mL
same,IC50,"[6]; HepG2, 24 h",1 µg/mL
same,IC50,"[7]; WM793, 24 h",> 40 µg/mL
same,IC50,[8]; 24 h,> 40 µg/mL
same,IC50,"[9]; TPC-1, 24 h",3.9 µg/mL
same,Selectivity Index (SI),[9]; [22],7.0
same,IC50,"[10]; HT29, 24 h",1.5 µg/mL
same,IC50,"[12]; HTB-140, 24 h",5.7 µg/mL
same,Selectivity Index (SI),[12]; [23],0.8
same,IC50,[14]; 24 h,4.7 µg/mL
same,IC50,"[15]; FTC133, 24 h",4 µg/mL
same,Selectivity Index (SI),[15]; [24],6.76
same,IC50,"[16]; A375, 24 h",0.6 µg/mL
same,Selectivity Index (SI),[16],7.9
same,IC50,"[17]; DU-145, 24 h",3.2 µg/mL
same,IC50,[19]; 24 h,1.4 µg/mL
same,IC50,"[20]; DLD-1, 24 h",1.1 µg/mL
same,IC50,"[21]; HCT116, 24 h",4 µg/mL
